Assay results published in patent US7271174B2, “Metabolites of tricyclic amides useful for inhibition of G-protein function and methods of treatment of proliferative diseases” (Schering Corporation, priority 2003, dated 2007).

Target: purified human farnesyl protein transferase (Homo sapiens, UniProt P49354+P49356)
Assay: (H-Ras) Farnesyl Transferase Inhibition assay
Type: biochemical
Details: transfer of [3H] farnesyl from [3H] farnesyl pyrophosphate to biotin-CVLS peptide; 37° C., 60 minutes; SPA beads
Method: Assay Conditions for (H-Ras) FPT
FPT activity was determined by measuring the transfer of [^3H] farnesyl from [^3H] farnesyl pyrophosphate to a biotinylated peptide derived from the C-terminus of H-Ras (biotin-CVLS). […] The reaction mixture was incubated in a Vortemp shaking incubator at 37° C., 45 RPM for 60 minutes and stopped with 150 μL of 0.25 M EDTA containing 0.5% BSA and 1.3 mg/ml Streptavidin SPA beads. […] Percent inhibition was calculated relative to the vehicle control.

SMILES: NC(=O)N1CC=C(CC(=O)N2CCC([C@H]3c4ncc(Br)cc4CCc4cc(Cl)cc(Br)c43)CC2)CC1 [Compound 8, (+)-4-[2-[4-(3,10-dibromo-8-chloro-6,11-dihydro-5H-benzo[5,6]cyclohepta[1,2-b]pyridin-11(R)-yl)-1-piperidinyl]-2-oxoethyl]-3,4-didehydro-1-piperidine-carboxamide]
- IC50: 2.6 nM

SMILES: NC(=O)N1CCC(=CC(=O)N2CCC([C@H]3c4ncc(Br)cc4CCc4cc(Cl)cc(Br)c43)CC2)CC1 [Compound 9, (+)-4-[2-[4-(3,10-Dibromo-8-chloro-6,11-dihydro-5H-benzo[5,6]cyclohepta[1,2-b]pyridin-11(R)-yl)-1-piperidinyl]-2-oxoethylidene]-1-piperidinecarboxamide]
- IC50: 23.3 nM
